The values below come from paper PMC7675540 (ACS Omega, 2020).

For the assay, the target named is T1, carboxylesterase 1 (CES1) (Homo sapiens, UniProt P23141).
T1 sequence (P23141 18-567): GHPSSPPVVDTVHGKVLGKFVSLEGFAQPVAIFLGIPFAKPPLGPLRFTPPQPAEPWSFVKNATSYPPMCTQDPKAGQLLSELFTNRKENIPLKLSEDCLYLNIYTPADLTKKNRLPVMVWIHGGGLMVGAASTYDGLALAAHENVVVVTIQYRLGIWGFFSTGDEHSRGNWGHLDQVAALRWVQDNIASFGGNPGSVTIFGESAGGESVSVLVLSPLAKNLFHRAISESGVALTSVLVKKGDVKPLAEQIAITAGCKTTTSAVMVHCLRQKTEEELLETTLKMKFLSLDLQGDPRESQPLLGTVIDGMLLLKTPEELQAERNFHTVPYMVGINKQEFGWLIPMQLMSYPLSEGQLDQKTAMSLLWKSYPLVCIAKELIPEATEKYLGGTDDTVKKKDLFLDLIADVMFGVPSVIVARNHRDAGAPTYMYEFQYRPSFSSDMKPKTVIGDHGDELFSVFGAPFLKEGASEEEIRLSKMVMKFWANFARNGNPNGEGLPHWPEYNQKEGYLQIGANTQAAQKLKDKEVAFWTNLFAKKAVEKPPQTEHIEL
In words: LC-MS/MS of the product of PGD2-G hydrolysis. The class given is biochemical.

For the molecule `CCCCC[C@H](O)/C=C/[C@H]1C(=O)C[C@H](O)[C@@H]1C/C=C\CCCC(=O)O` [PGD2], the “LC-MS/MS of the product of PGD2-G hydrolysis” value is recorded as “Our data indicates that PGD2-G/PGD2 is a substrate/product dyad for CES1”.
